# Measurements from ChEMBL document CHEMBL1142376, “Novel CADD-based peptidyl vinyl ester derivatives as potential proteasome inhibitors” (Bioorg Med Chem Lett, 2008).
# Legend:
# [1] = tested on: Bel-7402; test: Antiproliferative activity against human Bel7402 cells at 10 umole; assay type: functional
# [2] = Inhibition of chymotrypsin-like activity of 20S proteasome
# [3] = tested on: HL-60; test: Antiproliferative activity against human HL60 cells at 10 umole; assay type: functional
# [4] = tested on: KB; test: Antiproliferative activity against human KB cells at 10 umole; assay type: functional
# [5] = Inhibition of trypsin-like activity of 20S proteasome
# [6] = tested on: BGC-823; test: Antiproliferative activity against human BGC823 cells at 10 umole; assay type: functional
# [7] = Inhibition of post acidic-like activity of 20S proteasome
IC50 [2] [µmol],IC50 [5] [µmol],IC50 [7] [µmol],Compound,Activity [1] [%],Activity [3] [%],Activity [4] [%],Activity [6] [%]
> 100,> 100,> 100,CCOC(=O)/C=C/[C@H](Cc1ccccc1)NC(=O)[C@H](Cc1ccccc1)NC(=O)OC(C)(C)C,-3.61,25.73,-4.66,20.9
> 100,> 100,> 100,CCOC(=O)/C=C/[C@H](C[C@@H]1CCNC1=O)NC(=O)[C@H](CO)NC(=O)[C@@H](NC(=O)OC(C)(C)C)C(C)C,-4.98,-1.94,-3.45,5.52
> 100,> 100,> 100,CCOC(=O)/C=C/[C@H](Cc1ccc(O)cc1)NC(=O)[C@H](CC(C)C)NC(=O)OC(C)(C)C,-10.27,5.87,1.72,17.01
> 100,> 100,> 100,CCOC(=O)/C=C/[C@H](Cc1ccccc1)NC(=O)[C@@H](NC(=O)OC(C)(C)C)[C@@H](C)CC,-7.74,29.56,-0.18,24.14
> 100,> 100,> 100,CCOC(=O)/C=C/[C@H](Cc1ccccc1)NC(=O)[C@H](Cc1ccccc1)NC(=O)[C@H](CC(C)C)NC(=O)OC(C)(C)C,-4.56,8.65,4.33,13.32
> 100,> 100,> 100,CC(C)(C)OC(=O)N[C@@H](Cc1ccccc1)C(=O)N[C@@H](CO)C(=O)N[C@H](/C=C/C(=O)O)Cc1ccc(O)cc1,3.39,13.37,7.44,10.28
> 100,> 100,> 100,CCOC(=O)/C=C/[C@H](C[C@@H]1CCNC1=O)NC(=O)[C@H](CC(C)C)NC(=O)[C@@H](NC(=O)[C@@H](NC(=O)OC(C)(C)C)[C@@H](C)CC)[C@@H](C)O,-0.31,-2.32,4.3,19.98
> 100,> 100,> 100,CCOC(=O)/C=C/[C@H](Cc1ccc(O)cc1)NC(=O)[C@H](CC(C)C)NC(=O)[C@H](CC(C)C)NC(=O)OC(C)(C)C,-6.95,-2.64,-5.99,0.02
> 100,> 100,> 100,CCOC(=O)/C=C/[C@H](Cc1ccc(O)cc1)NC(=O)[C@H](Cc1ccccc1)NC(=O)OC(C)(C)C,12.68,23.66,-0.7,33.88
> 100,> 100,> 100,CCOC(=O)/C=C/[C@H](Cc1ccccc1)NC(=O)[C@H](CC(C)C)NC(=O)[C@H](CC(C)C)NC(=O)OC(C)(C)C,-12.87,6.13,-1.67,9.95
> 100,> 100,> 100,CCOC(=O)/C=C/[C@H](Cc1ccccc1)NC(=O)[C@H](CO)NC(=O)OC(C)(C)C,-3.14,19.98,-11.24,19.11
> 100,> 100,> 100,CC(C)(C)OC(=O)N[C@@H](CO)C(=O)N[C@H](/C=C/C(=O)O)Cc1ccc(O)cc1,-5.91,19.26,-15.49,22.56
> 100,> 100,> 100,CCOC(=O)/C=C/[C@H](Cc1ccccc1)NC(=O)[C@@H](NC(=O)OC(C)(C)C)C(C)C,-3.57,27.13,-1.97,21.27
> 100,> 100,> 100,CC(C)(C)OC(=O)N[C@@H](Cc1ccccc1)C(=O)N[C@@H](CO)C(=O)N[C@H](/C=C/C(=O)O)C[C@@H]1CCNC1=O,1.66,31.04,-15.6,16.9
> 100,> 100,> 100,CCOC(=O)/C=C/[C@H](Cc1ccc(O)cc1)NC(=O)[C@@H](NC(=O)OC(C)(C)C)[C@@H](C)CC,3.32,21.66,5.27,23.06
> 100,> 100,> 100,CCOC(=O)/C=C/[C@H](C[C@@H]1CCNC1=O)NC(=O)[C@H](CC(C)C)NC(=O)[C@H](CO)NC(=O)[C@@H](NC(=O)OC(C)(C)C)C(C)C,-3.55,-47.14,9.15,20.55
> 100,> 100,> 100,CCOC(=O)/C=C/[C@H](C[C@@H]1CCNC1=O)NC(=O)[C@H](CC(C)C)NC(=O)[C@H](CC(C)C)NC(=O)OC(C)(C)C,-2.4,36.97,-14.03,21.44
> 100,> 100,> 100,CCOC(=O)/C=C/[C@H](Cc1ccc(O)cc1)NC(=O)[C@@H](NC(=O)OC(C)(C)C)C(C)C,4.6,22.1,1.76,18.44
> 100,> 100,> 100,CCOC(=O)/C=C/[C@H](Cc1ccc(O)cc1)NC(=O)[C@@H](NC(=O)[C@@H](NC(=O)OC(C)(C)C)[C@@H](C)CC)[C@@H](C)O,3.1,26.5,3.76,14.69
> 100,> 100,> 100,CCOC(=O)/C=C/[C@H](Cc1ccccc1)NC(=O)[C@H](CC(C)C)NC(=O)OC(C)(C)C,1.55,33.88,-6.67,30.21
48.31,> 100,> 100,CCOC(=O)/C=C/[C@H](C[C@@H]1CCNC1=O)NC(=O)[C@H](CC(C)C)NC(=O)[C@H](CC(C)C)NC(=O)[C@H](CC(C)C)NC(=O)OC(C)(C)C,12.02,17.17,15.73,16.14
> 100,> 100,> 100,CCOC(=O)/C=C/[C@H](C[C@@H]1CCNC1=O)NC(=O)[C@@H](NC(=O)[C@@H](NC(=O)OC(C)(C)C)[C@@H](C)CC)[C@@H](C)O,-16.67,0.71,-10.29,0.69
> 100,> 100,> 100,CCOC(=O)/C=C/[C@H](C[C@@H]1CCNC1=O)NC(=O)[C@H](Cc1ccccc1)NC(=O)[C@H](CC(C)C)NC(=O)OC(C)(C)C,-1.63,-7.61,-1.56,13.89
> 100,> 100,> 100,CCOC(=O)/C=C/[C@H](Cc1ccccc1)NC(=O)[C@@H](NC(=O)[C@@H](NC(=O)OC(C)(C)C)[C@@H](C)CC)[C@@H](C)O,-1.79,8.17,10.75,13.62
> 100,> 100,> 100,CCOC(=O)/C=C/[C@H](C[C@@H]1CCNC1=O)NC(=O)[C@H](CC(C)C)NC(=O)[C@H](CO)NC(=O)[C@H](Cc1ccccc1)NC(=O)OC(C)(C)C,-0.39,4.94,-4.17,14.25
> 100,> 100,> 100,CCOC(=O)/C=C/[C@H](Cc1ccccc1)NC(=O)[C@H](CO)NC(=O)[C@@H](NC(=O)OC(C)(C)C)C(C)C,-11.09,0.36,-6.79,0.04
63.41,> 100,> 100,CCOC(=O)/C=C/[C@H](C[C@@H]1CCNC1=O)NC(=O)[C@H](Cc1ccc(O)cc1)NC(=O)[C@H](CC(C)C)NC(=O)[C@H](CC(C)C)NC(=O)OC(C)(C)C,7.64,17.73,6.64,28.9
> 100,> 100,> 100,CCOC(=O)/C=C/[C@H](Cc1ccccc1)NC(=O)[C@H](CO)NC(=O)[C@H](Cc1ccccc1)NC(=O)OC(C)(C)C,-8.04,21.08,5.23,8.28
